Test results: patent US12576137B2, “Collagen hydrolysate comprising GPCR ligand peptide” (Industry-Academic Cooperation Foundation, Yonsei University, priority 2021, dated 2026)

Experiments:
[1] = tested on: Caco-2 cells; test: Wound healing (scratch) assay; format: cell-based, human; details: pre-incubated with 0.1 μM CID 2745687
[2] = tested on: ERK1/2 signaling pathway; details: pre-treated with 0.1 μM CID 2745687 for 1 hour

Row | Compound | wound-healing activity after GPR35 inhibition [1] | ERK1/2 phosphorylation increase when treated with CID 2745687 [2]
1 | CCCOc1ccccc1-c1nc2nn[nH]c2c(=O)[nH]1 [zaprinast] | abolished | reversed
2 | human epidermal growth factor [EGF, a well-known wound therapeutic agent, positive control] | not inhibited | 
